Data on three compounds can be found in paper PMC5761078 (Cell reports, 2018).

One test concerns the target T1, A1R (Mus musculus, UniProt Q60612).
T1 sequence (Q60612 1-326): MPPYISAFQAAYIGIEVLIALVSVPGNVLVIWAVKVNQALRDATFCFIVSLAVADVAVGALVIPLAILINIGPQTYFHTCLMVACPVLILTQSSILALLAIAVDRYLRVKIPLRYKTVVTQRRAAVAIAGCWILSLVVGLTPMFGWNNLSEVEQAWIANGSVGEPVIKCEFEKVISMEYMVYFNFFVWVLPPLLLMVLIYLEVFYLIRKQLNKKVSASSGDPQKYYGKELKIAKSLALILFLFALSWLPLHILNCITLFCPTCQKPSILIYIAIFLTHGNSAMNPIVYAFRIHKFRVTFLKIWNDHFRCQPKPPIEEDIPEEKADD
In words: TEpacVV FRET imaging of cAMP in primary neurons. It counts as cell-based. The conditions noted are these: agonist, cAMP decrease, bath application.

In test [1] the target is D1 dopamine receptor (D1R) (Mus musculus, UniProt Q61616). The conditions noted are these: agonist, cAMP increase; dMSN cell body; bath application.
D1 dopamine receptor (D1R), sequence (Q61616 whole entry): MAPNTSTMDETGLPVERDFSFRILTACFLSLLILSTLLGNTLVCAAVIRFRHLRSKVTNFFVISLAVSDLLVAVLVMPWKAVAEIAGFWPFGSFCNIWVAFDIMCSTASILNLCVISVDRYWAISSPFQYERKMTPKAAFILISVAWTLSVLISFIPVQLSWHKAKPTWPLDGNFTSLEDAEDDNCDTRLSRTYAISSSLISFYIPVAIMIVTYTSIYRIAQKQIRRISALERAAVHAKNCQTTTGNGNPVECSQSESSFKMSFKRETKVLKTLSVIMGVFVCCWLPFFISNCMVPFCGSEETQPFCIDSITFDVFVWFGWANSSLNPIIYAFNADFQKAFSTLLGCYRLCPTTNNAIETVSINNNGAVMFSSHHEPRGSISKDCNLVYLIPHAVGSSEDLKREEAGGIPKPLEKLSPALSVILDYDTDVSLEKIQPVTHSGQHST

On to `C[C@@]1(O)[C@H](O)[C@@H](CO)O[C@H]1n1cnc2c(NC3CCCC3)nc(Cl)nc21` [2′MeCCPA], for which the EC50 (in general, the concentration that produces a half-maximal response) on A1R (dMSN) stood at 14.6 ± 4.1 nM. `Nc1ncnc2c1ncn2[C@@H]1O[C@H](CO)[C@@H](O)[C@H]1O` [adenosine]: at A1R (dMSN cell body), a half-maximal response (EC50) required 112 ± 34 nM. In test [1], `NCCc1ccc(O)c(O)c1` [dopamine] yielded a half-maximal effective concentration (EC50) of 76.5 ± 13.9 nM.
